This passage reports IC50 and half-life results from ChEMBL document CHEMBL3853350 (ACS Med Chem Lett, 2016).

Each structure is given as a SMILES string.

Data set [1] deals with PI3-kinase p110-delta/p85-alpha (Homo sapiens, UniProt O00329). The experiment in a line: Inhibition of human recombinant full length N-terminal GST-tagged PI3K p110delta/p85alpha coexpressed in baculovirus infected Sf9 insect cells using diC8PIP2 as substrate incubated for 15 mins followed by substrate addition measured after 2 hr by ADP-Glo luminescence assay. On the technique in general: ADP-Glo turns the ADP formed in a reaction into a luminescent signal.

Data set [2] has as its target Phosphatidylinositol 4,5-bisphosphate 3-kinase catalytic subunit gamma isoform (Homo sapiens, UniProt P48736). As to the kind of experiment: biochemical.
Description: Inhibition of human recombinant full length N-terminal His-tagged PI3Kgamma expressed in Sf9 insect cells using diC8PIP2 as substrate incubated for 15 mins followed by substrate addition measured after 2 hr by ADP-Glo luminescence assay
The nature of data set [3]: Half life in mouse hepatocytes at 1 uM by LC/MS analysis. It counts as ADME, cell-based, Hepatocyte.

Phosphatidylinositol 4,5-bisphosphate 3-kinase catalytic subunit gamma isoform, sequence (P48736 whole entry, canonical isoform): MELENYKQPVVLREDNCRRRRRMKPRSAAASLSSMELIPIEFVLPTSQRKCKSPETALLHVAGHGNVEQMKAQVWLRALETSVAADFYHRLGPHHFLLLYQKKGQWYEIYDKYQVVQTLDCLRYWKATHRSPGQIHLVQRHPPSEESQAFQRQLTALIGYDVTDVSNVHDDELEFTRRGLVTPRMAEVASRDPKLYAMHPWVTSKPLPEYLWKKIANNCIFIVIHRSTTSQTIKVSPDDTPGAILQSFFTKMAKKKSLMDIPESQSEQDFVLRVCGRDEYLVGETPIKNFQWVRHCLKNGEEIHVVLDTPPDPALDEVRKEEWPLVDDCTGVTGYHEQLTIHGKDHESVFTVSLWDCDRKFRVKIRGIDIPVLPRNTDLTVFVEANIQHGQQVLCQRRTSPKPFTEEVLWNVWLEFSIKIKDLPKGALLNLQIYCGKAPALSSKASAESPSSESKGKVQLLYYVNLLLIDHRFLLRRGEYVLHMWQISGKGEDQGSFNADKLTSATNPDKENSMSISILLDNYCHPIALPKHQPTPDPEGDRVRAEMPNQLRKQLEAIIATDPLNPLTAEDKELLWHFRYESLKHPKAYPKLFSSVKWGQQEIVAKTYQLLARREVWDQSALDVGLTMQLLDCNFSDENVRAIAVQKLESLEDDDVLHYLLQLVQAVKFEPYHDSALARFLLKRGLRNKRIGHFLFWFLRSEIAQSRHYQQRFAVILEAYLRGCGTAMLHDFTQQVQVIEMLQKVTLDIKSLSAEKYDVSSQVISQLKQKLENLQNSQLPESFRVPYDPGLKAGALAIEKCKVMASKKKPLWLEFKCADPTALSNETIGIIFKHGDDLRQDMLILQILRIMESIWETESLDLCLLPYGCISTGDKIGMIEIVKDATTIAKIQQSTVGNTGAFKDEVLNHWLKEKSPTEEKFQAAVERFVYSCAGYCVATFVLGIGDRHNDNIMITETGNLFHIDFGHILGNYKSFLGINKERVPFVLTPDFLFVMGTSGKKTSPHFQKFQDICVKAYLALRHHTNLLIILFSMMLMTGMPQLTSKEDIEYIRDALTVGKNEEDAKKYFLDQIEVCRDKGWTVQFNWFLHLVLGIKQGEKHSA
PI3-kinase p110-delta/p85-alpha, sequence (P27986 whole entry): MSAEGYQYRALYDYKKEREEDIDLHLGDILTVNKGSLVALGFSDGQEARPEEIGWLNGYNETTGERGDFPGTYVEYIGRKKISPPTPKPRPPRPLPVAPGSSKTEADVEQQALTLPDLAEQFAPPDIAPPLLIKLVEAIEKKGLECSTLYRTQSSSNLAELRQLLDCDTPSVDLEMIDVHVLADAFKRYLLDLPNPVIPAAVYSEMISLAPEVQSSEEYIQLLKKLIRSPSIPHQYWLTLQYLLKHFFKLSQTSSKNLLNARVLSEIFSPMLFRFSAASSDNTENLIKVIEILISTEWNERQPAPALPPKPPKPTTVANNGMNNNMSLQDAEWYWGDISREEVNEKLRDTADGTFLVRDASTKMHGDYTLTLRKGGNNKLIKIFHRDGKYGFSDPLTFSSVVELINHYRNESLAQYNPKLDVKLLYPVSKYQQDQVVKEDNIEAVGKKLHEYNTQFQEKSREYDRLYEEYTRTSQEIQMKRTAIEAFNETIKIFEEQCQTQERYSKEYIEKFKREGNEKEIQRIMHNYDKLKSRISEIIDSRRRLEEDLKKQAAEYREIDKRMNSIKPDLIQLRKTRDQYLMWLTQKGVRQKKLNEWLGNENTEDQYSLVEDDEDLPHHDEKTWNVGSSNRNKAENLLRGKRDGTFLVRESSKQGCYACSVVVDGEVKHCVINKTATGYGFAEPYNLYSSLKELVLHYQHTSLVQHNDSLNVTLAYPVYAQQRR
PI3-kinase p110-delta/p85-alpha, sequence (O00329 whole entry): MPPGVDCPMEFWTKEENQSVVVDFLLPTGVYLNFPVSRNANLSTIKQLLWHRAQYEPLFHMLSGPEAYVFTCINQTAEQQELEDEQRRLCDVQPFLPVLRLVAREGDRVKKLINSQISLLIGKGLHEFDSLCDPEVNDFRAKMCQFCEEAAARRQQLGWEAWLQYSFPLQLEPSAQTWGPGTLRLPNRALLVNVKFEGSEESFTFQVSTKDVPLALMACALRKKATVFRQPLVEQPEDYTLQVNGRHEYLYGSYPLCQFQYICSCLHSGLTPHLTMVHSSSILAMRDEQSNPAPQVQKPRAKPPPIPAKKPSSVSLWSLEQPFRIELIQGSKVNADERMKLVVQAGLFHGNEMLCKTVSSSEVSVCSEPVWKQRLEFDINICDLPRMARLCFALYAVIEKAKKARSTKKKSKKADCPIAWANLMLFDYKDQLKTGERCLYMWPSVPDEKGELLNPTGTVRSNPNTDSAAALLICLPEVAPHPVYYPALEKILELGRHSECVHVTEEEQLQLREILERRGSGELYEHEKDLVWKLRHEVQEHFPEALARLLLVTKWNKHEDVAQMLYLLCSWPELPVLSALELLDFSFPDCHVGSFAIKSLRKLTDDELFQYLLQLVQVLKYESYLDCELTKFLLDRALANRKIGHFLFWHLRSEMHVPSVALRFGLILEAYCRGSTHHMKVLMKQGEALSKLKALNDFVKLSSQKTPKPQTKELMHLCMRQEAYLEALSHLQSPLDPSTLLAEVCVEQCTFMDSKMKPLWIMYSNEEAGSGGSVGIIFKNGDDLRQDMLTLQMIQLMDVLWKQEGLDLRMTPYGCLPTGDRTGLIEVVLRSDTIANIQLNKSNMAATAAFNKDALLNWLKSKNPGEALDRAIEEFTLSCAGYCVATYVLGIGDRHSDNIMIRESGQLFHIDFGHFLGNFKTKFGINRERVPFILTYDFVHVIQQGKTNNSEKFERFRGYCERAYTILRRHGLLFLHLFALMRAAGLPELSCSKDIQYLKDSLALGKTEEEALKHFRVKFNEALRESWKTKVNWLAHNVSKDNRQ

The term IC50 denotes the concentration needed to halve the response being measured. For the compound `Nc1nn2cccnc2c1C(=O)NCc1cc2cccc(Cl)c2c(=O)n1-c1ccccc1`, the half-maximal inhibitory concentration (IC50) was more than 10000 nM in data set [1] and more than 7000 nM in data set [2].
One may read the half-life as the time in which the quantity being followed falls by half. A high value points to slow decline. Turning to `C[C@H](NC(=O)c1c(N)nn2cccnc12)c1cc2cccc(C#Cc3ccccn3)c2c(=O)n1-c1ccccc1`, the half-life at 1 µM in data set [3] stood at 72 min. The IC50 in data set [1] was more than 9600 nM; in data set [2], 170 nM.
`C[C@H](NC(=O)c1c(N)nn2cccnc12)c1cc2cccc(C#Cc3nccs3)c2c(=O)n1-c1ccccc1` had a half-life at 1 µM in data set [3] of 27 min. The IC50 in data set [1] is more than 10000 nM; in data set [2] it was 360 nM.
Take `C[C@H](NC(=O)c1cnn2cccnc12)c1cc2cccc(Cl)c2c(=O)n1-c1ccccc1`: the IC50 was found to be 800 nM in data set [1] and 400 nM in data set [2].
The matching figures for `C[C@H](NC(=O)c1c(N)ncc2cccnc12)c1cc2cccc(Cl)c2c(=O)n1-c1ccccc1`: 320 nM and 60 nM.
Consider `C[C@H](NC(=O)c1c(N)nn2cccnc12)c1cc2cccc(C#Cc3ccn(C)n3)c2c(=O)n1-c1ccccc1`, for which the half-life at 1 µM in data set [3] came out at 251 min. In addition, the IC50 in data set [1] was more than 9000 nM; in data set [2], 100 nM.
For `COc1cccc2cc([C@H](C)NC(=O)c3c(N)nn4cccnc34)n(-c3ccccc3)c(=O)c12`, the IC50 in data set [1] is more than 9000 nM; in data set [2], 1000 nM.
With `C[C@H](NC(=O)c1c(N)nn2ccccc12)c1cc2cccc(Cl)c2c(=O)n1-c1ccccc1`, in data set [1], the IC50 was determined as 2600 nM.
Compound `C[C@H](NC(=O)c1c(N)nn2cccnc12)c1cc2cccc(C#Cc3cncs3)c2c(=O)n1-c1ccccc1` gave a half-life at 1 µM in data set [3] of 43 min. The IC50 in data set [1] is more than 8000 nM; in data set [2], 110 nM.
The matching figures for `C[C@H](NC(=O)c1c(N)nn2cccnc12)c1cc2cccc(C#Cc3cscn3)c2c(=O)n1-c1ccccc1`: 270 min, 4800 nM and 75 nM.
As for `C[C@H](NC(=O)c1c(N)nn2cccnc12)c1cc2cccc(C#Cc3cccnc3)c2c(=O)n1-c1ccccc1`, the half-life at 1 µM in data set [3] came out at 102 min. Besides, the IC50 in data set [1] is more than 6000 nM; in data set [2], 110 nM.
On to `CC#Cc1cccc2cc([C@H](C)NC(=O)c3c(N)nn4cccnc34)n(-c3ccccc3)c(=O)c12`, for which the concentration for half-maximal inhibition (IC50) in data set [1] was more than 1000 nM; in data set [2], 25 nM.
On the same counts, the results for `C[C@H](NC(=O)c1c(N)nn2cccnc12)c1cc2cccc(C#N)c2c(=O)n1-c1ccccc1` are 3100 nM and 240 nM.
The matching figures for `C/C=C/c1cccc2cc([C@H](C)NC(=O)c3c(N)nn4cccnc34)n(-c3ccccc3)c(=O)c12`: more than 10000 nM and 330 nM.
For the compound `Cc1cccc2cc([C@H](C)NC(=O)c3c(N)nn4cccnc34)n(-c3ccccc3)c(=O)c12`, the figures for the concentration for half-maximal inhibition (IC50) in data set [1] and in data set [2] were 2600 nM and 110 nM, respectively.
On the same counts, the results for `CNc1cccc2cc([C@H](C)NC(=O)c3c(N)nn4cccnc34)n(-c3ccccc3)c(=O)c12` are more than 10000 nM and 1100 nM.
In turn, `C[C@H](NC(=O)c1c(N)nn2cccnc12)c1cc2cccc(C#Cc3ccncc3)c2c(=O)n1-c1ccccc1` came in with a half-life at 1 µM in data set [3] of 51 min. The concentration for half-maximal inhibition (IC50) is more than 9000 nM in data set [1] and 350 nM in data set [2].
With `CC[C@H](NC(=O)c1c(N)nn2cccnc12)c1cc2cccc(Cl)c2c(=O)n1-c1ccccc1`, the results for the IC50 in data set [1] and in data set [2] were 600 nM and 150 nM, respectively.
Consider `C[C@H](NC(=O)c1c(N)nn2cccnc12)c1cc2cccc(Cl)c2c(=O)n1-c1ccccc1`, for which, in data set [1], the IC50 amounted to 400 nM.
In the case of `C[C@H](NC(=O)c1c(N)nn2cccnc12)c1cc2cccc(C#Cc3ccccc3)c2c(=O)n1-c1ccccc1`, the IC50 in data set [1] came out at 140 nM; in data set [2] it was 280 nM.
In the case of `C#Cc1cccc2cc([C@H](C)NC(=O)c3c(N)nn4cccnc34)n(-c3ccccc3)c(=O)c12`, the 50% inhibitory concentration (IC50) in data set [1] was 700 nM; in data set [2] it was 14 nM.
On the same counts, the results for `C[C@H](NC(=O)c1c(N)nn2cccnc12)c1cc2cccc(F)c2c(=O)n1-c1ccccc1` are 530 nM and 50 nM.
On to `C[C@H](NC(=O)c1cncc2cccnc12)c1cc2cccc(Cl)c2c(=O)n1-c1ccccc1`, for which the values for the half-inhibitory concentration (IC50) in data set [1] and in data set [2] were 900 nM and 1000 nM, respectively.
The matching figures for `C[C@H](NC(=O)c1c(N)nn2cccnc12)c1cc2cccc(N(C)C)c2c(=O)n1-c1ccccc1`: more than 10000 nM and 1100 nM.
On the same counts, the results for `C[C@H](NC(=O)c1c(N)ncc2ccccc12)c1cc2cccc(Cl)c2c(=O)n1-c1ccccc1` are more than 10000 nM and more than 10000 nM.
